From patent US8119569B2, “Benzoylpyrazole compounds, process for their production and herbicides containing them” (Ishihara Sangyo Kaisha, Ltd., priority 2006, dated 2012)

Tests used:
Assay type in all cases: in vivo
[1] = tested on: velvetleaf (Abutilon theophrasti MEDIC.); experiment: Test Example 3: foliar treatment, comparison with reference compounds; conditions: Abutilon theophrasti, 22nd day after application, 3.3 to 4.3 leaf stage, read-out: Growth inhibition rate (%) (22nd day after application) Velvet leaf
Excerpt: (§1) Upland field soil was put into a 1/1,000,000 hectare pot, and seeds of various plants were sown. […] The spray solutions thus prepared were applied for foliar treatment by a small sprayer.

corn (Zea mays L.) [2] = experiment: as above; conditions: Zea mays, 21st day after application, 4.0 to 4.3 leaf stage, crop, read-out: Growth inhibition rate (%) (21st day after application) Corn
Excerpt: as §1

[3] = tested on: guineagrass (Panicum maximum Jacq.); experiment: as above; conditions: Megathyrsus maximus, 18th day after application, 3.5 to 4.3 leaf stage, read-out: Growth inhibition rate (%) (18th day after application) Guineagrass
Excerpt: as §1

[4] = tested on: green foxtail (Setaria viridis L.); experiment: as above; conditions: Setaria viridis, 17th day after application, 4.0 to 4.5 leaf stage, read-out: Growth inhibition rate (%) (17th day after application) Green foxtail
Excerpt: as §1

[5] = tested on: barnyardgrass (Echinochloa oryzicola vasing.); experiment: Test Example 4: paddy field pot, water application; conditions: 63 g/ha, 14th day after application
Excerpt: (§2) Paddy field soil was put into a 1/1,000,000 hectare pot, and seeds of barnyardgrass (Echinochloa oryzicola vasing.) and Japanese bulrush (Scirpus juncoides) were sown and lightly covered with soil. Then, pot was left to stand in a greenhouse in a state irrigated to a water depth of from 0.5 to 1 cm, and next day or two days later, tubers of Japanese ribbon waparo (Sagittaria pygmaea) were planted. Then, the irrigated water depth was maintained to be from 3 to 4 cm, and when barnyardgrass and Japanese bulrush reached 0.5 leaf stage, and Japanese ribbon waparo reached primary leaf stage, a water diluted solution of a wettable powder or an emulsifieable concentrate of the compound of the present invention prepared in accordance with a conventional preparation method, was uniformly dropwise applied by a pipette so that the amount of active ingredients would be a prescribed amount. Further, paddy field soil was put into a 1/1,000,000 pot, followed by soil puddling to an irrigated water depth of from 3 to 4 cm. Next day, rice (Oryza sativa L.) (var.: Nihonbare) of two leaf stage was transplanted in a transplantation depth of 3 cm. On the 4th day after transplantation, the compound of the present invention was applied in the same manner as described above.

[6] = tested on: Japanese bulrush (Scirpus juncoides); experiment: Test Example 4: paddy field pot, water application; conditions: 63 g/ha, 14th day after application
Excerpt: as §2

[7] = tested on: Japanese ribbon waparo (Sagittaria pygmaea); experiment: Test Example 4: paddy field pot, water application; conditions: 63 g/ha, 14th day after application
Excerpt: as §2

[8] = tested on: velvetleaf (Abutilon theophrasti MEDIC.); experiment: Test Example 1: foliar treatment, upland pot; conditions: 7 g/ha, 21st day after application
Excerpt: Upland field soil was put into a 1/170,000 hectare pot, and seeds of various plants were sown. […] The spray solutions thus prepared were applied for foliar treatment by a small sprayer.

[9] = tested on: velvetleaf (Abutilon theophrasti MEDIC.); experiment: Test Example 2: soil application on the day after sowing; conditions: 250 g/ha, 19th to 22nd day after application
Excerpt: (§3) Upland field soil was put into a 1/170,000 hectare pot, and seeds of various plants (barnyardgrass (Echinochloa crus-galli L.), crabgrass (Digitaria sanguinalis L.), green foxtail (Setaria viridis L.), redroot pigweed (Amaranthus retroflexus L.), prickly sida (Sida spinosa L.), velvetleaf (Abutilon theophrasti MEDIC.), rice (oryza sativa L.), corn (Zea mays L.) and soybean (Glycine max Merr.)) were sown. On the day after sowing, wettable powders or emulsifiable concentrates of the compounds of the present invention prepared in accordance with a conventional preparation method, were weighed so that the active ingredients became the prescribed amounts, and diluted with water in an amount corresponding to 500 liter per 1 hectare, followed by soil application with a small sprayer.

corn (Zea mays L.) [10] = experiment: as above; conditions: 250 g/ha, 19th to 22nd day after application, crop
Excerpt: as §3

rice (Oryza sativa L.) [11] = experiment: as above; conditions: 250 g/ha, 19th to 22nd day after application, crop
Excerpt: as §3

[12] = tested on: barnyardgrass (Echinochloa crus-galli L.); experiment: as above; conditions: 250 g/ha, 19th to 22nd day after application
Excerpt: as §3

[13] = tested on: crabgrass (Digitaria sanguinalis L.); experiment: as above; conditions: 250 g/ha, 19th to 22nd day after application
Excerpt: as §3

[14] = tested on: redroot pigweed (Amaranthus retroflexus L.); experiment: as above; conditions: 250 g/ha, 19th to 22nd day after application
Excerpt: as §3

[15] = tested on: green foxtail (Setaria viridis L.); experiment: as above; conditions: 250 g/ha, 19th to 22nd day after application
Excerpt: as §3

[16] = tested on: prickly sida (Sida spinosa L.); experiment: as above; conditions: 250 g/ha, 19th to 22nd day after application
Excerpt: as §3

[17] = tested on: soybean (Glycine max Merr.); experiment: as above; conditions: 250 g/ha, 19th to 22nd day after application, crop
Excerpt: as §3

corn (Zea mays L.) [18] = experiment: Test Example 1: foliar treatment, upland pot; conditions: 7 g/ha, 21st day after application, crop
Excerpt: (§4) Upland field soil was put into a 1/170,000 hectare pot, and seeds of various plants were sown. When the respective plants reached predetermined leaf stage ((1) barnyardgrass (Echinochloa crus-galli L.): 1.0 to 3.3 leaf stage, (2) crabgrass (Digitaria sanguinalis L.): 1.2 to 3.0 leaf stage, (3) green foxtail (Setaria viridis L.): 1.5 to 3.3 leaf stage, (4) redroot pigweed (Amaranthus retroflexus L.): 0.1 to 2.0 leaf stage, (5) prickly sida (Sida spinosa L.): cotyledon stage to 2.0 leaf stage, (6) velvetleaf (Abutilon theophrasti MEDIC.): 0.1 to 2.0 leaf stage, (7) rice (Oryza sativa L.): 1.3 to 3.0 leaf stage, (8) corn (Zea mays L.): 2.5 to 3.4 leaf stage, and (9) soybean (Glycine max Merr.): primary leaf stage to 0.3 leaf stage), wettable powders or emulsifiable concentrates of the compounds of the present invention prepared in accordance with a conventional preparation method, were weighed so that the active ingredients became the prescribed amounts, and diluted with water in an amount corresponding to 500 liter per 1 hectare (containing 0.1 vol % of an agricultural spreader (“KUSARINOH”, manufactured by NIHON NOHYAKU CO., LTD.)). The spray solutions thus prepared were applied for foliar treatment by a small sprayer.

rice (Oryza sativa L.) [19] = experiment: Test Example 1: foliar treatment, upland pot; conditions: 7 g/ha, 21st day after application, crop
Excerpt: as §4

[20] = tested on: barnyardgrass (Echinochloa crus-galli L.); experiment: Test Example 1: foliar treatment, upland pot; conditions: 7 g/ha, 21st day after application
Excerpt: as §4

[21] = tested on: crabgrass (Digitaria sanguinalis L.); experiment: Test Example 1: foliar treatment, upland pot; conditions: 7 g/ha, 21st day after application
Excerpt: as §4

[22] = tested on: redroot pigweed (Amaranthus retroflexus L.); experiment: Test Example 1: foliar treatment, upland pot; conditions: 7 g/ha, 21st day after application
Excerpt: as §4

[23] = tested on: green foxtail (Setaria viridis L.); experiment: Test Example 1: foliar treatment, upland pot; conditions: 7 g/ha, 21st day after application
Excerpt: as §4

[24] = tested on: prickly sida (Sida spinosa L.); experiment: Test Example 1: foliar treatment, upland pot; conditions: 7 g/ha, 21st day after application
Excerpt: as §4

[25] = tested on: soybean (Glycine max Merr.); experiment: Test Example 1: foliar treatment, upland pot; conditions: 7 g/ha, 21st day after application, crop
Excerpt: as §4

[26] = tested on: rice (Oryza sativa L.) (var.: Nihonbare); experiment: Test Example 4: paddy field pot, water application, transplanted rice; conditions: 63 g/ha, 21st day after application, crop
Excerpt: as §2

COCCOc1c(S(C)(=O)=O)ccc(C(=O)c2cnn(C(C)C)c2O)c1Cl [Reference Compound 2]
inhibition at 15 g/ha [1]: 40%
inhibition at 120 g/ha (corn (Zea mays L.) [2]): 28%
inhibition at 3.5 g/ha [3]: 0%
inhibition at 3.5 g/ha [4]: 30%
inhibition at 7 g/ha [4]: 45%

CCOC(=O)OC(C)Oc1c(C(=O)c2ccc(S(C)(=O)=O)c(OCCOC)c2C)cnn1CC (racemic) [compound 3]
Growth inhibition rate (%) Barnyardgrass [5]: 100%
Growth inhibition rate (%) Japanese bulrush [6]: 95%
Growth inhibition rate (%) Japanese ribbon waparo [7]: 90%
Growth inhibition rate (%) Velvetleaf [8]: 90%
Growth inhibition rate (%) Velvetleaf [9]: 80%
Growth inhibition rate (%) Corn (corn (Zea mays L.) [10]): 0%
Growth inhibition rate (%) Rice (rice (Oryza sativa L.) [11]): 100%
Growth inhibition rate (%) Barnyardgrass [12]: 100%
Growth inhibition rate (%) Crabgrass [13]: 100%
Growth inhibition rate (%) Redroot pigweed [14]: 100%
Growth inhibition rate (%) Green foxtail [15]: 100%
Growth inhibition rate (%) Prickly sida [16]: 50%
Growth inhibition rate (%) Soybean [17]: 20%
Growth inhibition rate (%) Corn (corn (Zea mays L.) [18]): 0%
Growth inhibition rate (%) Rice (rice (Oryza sativa L.) [19]): 80%
Growth inhibition rate (%) Barnyardgrass [20]: 95%
Growth inhibition rate (%) Crabgrass [21]: 95%
Growth inhibition rate (%) Redroot pigweed [22]: 90%
Growth inhibition rate (%) Green foxtail [23]: 100%
Growth inhibition rate (%) Prickly sida [24]: 10%
Growth inhibition rate (%) Soybean [25]: 70%
Growth inhibition rate (%) Rice [26]: 40%

CCn1ncc(C(=O)c2ccc(S(C)(=O)=O)c(OCCOC)c2Cl)c1O [Reference Compound 1]
inhibition at 15 g/ha [1]: 20%
inhibition at 3.5 g/ha [3]: 0%
inhibition at 3.5 g/ha [4]: 35%
inhibition at 7 g/ha [4]: 55%

CCCOC(=O)OC(C)Oc1c(C(=O)c2ccc(S(C)(=O)=O)c(OCCOC)c2C)cnn1C (racemic) [compound 19]
Growth inhibition rate (%) Barnyardgrass [5]: 100%
Growth inhibition rate (%) Japanese bulrush [6]: 95%
Growth inhibition rate (%) Japanese ribbon waparo [7]: 95%
Growth inhibition rate (%) Velvetleaf [8]: 95%
Growth inhibition rate (%) Velvetleaf [9]: 98%
Growth inhibition rate (%) Corn (corn (Zea mays L.) [10]): 0%
Growth inhibition rate (%) Rice (rice (Oryza sativa L.) [11]): 100%
Growth inhibition rate (%) Barnyardgrass [12]: 100%
Growth inhibition rate (%) Crabgrass [13]: 100%
Growth inhibition rate (%) Redroot pigweed [14]: 100%
Growth inhibition rate (%) Green foxtail [15]: 100%
Growth inhibition rate (%) Prickly sida [16]: 60%
Growth inhibition rate (%) Soybean [17]: 40%
Growth inhibition rate (%) Corn (corn (Zea mays L.) [18]): 0%
Growth inhibition rate (%) Rice (rice (Oryza sativa L.) [19]): 80%
Growth inhibition rate (%) Barnyardgrass [20]: 95%
Growth inhibition rate (%) Crabgrass [21]: 90%
Growth inhibition rate (%) Redroot pigweed [22]: 95%
Growth inhibition rate (%) Green foxtail [23]: 100%
Growth inhibition rate (%) Prickly sida [24]: 30%
Growth inhibition rate (%) Soybean [25]: 80%
Growth inhibition rate (%) Rice [26]: 20%

CCOC(=O)OC(C)Oc1c(C(=O)c2ccc(S(C)(=O)=O)c(COC)c2C)cnn1C (racemic) [compound 7]
Growth inhibition rate (%) Barnyardgrass [5]: 100%
Growth inhibition rate (%) Japanese bulrush [6]: 70%
Growth inhibition rate (%) Japanese ribbon waparo [7]: 60%
Growth inhibition rate (%) Velvetleaf [8]: 98%
Growth inhibition rate (%) Velvetleaf [9]: 70%
Growth inhibition rate (%) Corn (corn (Zea mays L.) [10]): 0%
Growth inhibition rate (%) Rice (rice (Oryza sativa L.) [11]): 90%
Growth inhibition rate (%) Barnyardgrass [12]: 100%
Growth inhibition rate (%) Crabgrass [13]: 90%
Growth inhibition rate (%) Redroot pigweed [14]: 80%
Growth inhibition rate (%) Green foxtail [15]: 40%
Growth inhibition rate (%) Prickly sida [16]: 80%
Growth inhibition rate (%) Soybean [17]: 0%
Growth inhibition rate (%) Corn (corn (Zea mays L.) [18]): 0%
Growth inhibition rate (%) Rice (rice (Oryza sativa L.) [19]): 70%
Growth inhibition rate (%) Barnyardgrass [20]: 95%
Growth inhibition rate (%) Crabgrass [21]: 90%
Growth inhibition rate (%) Redroot pigweed [22]: 85%
Growth inhibition rate (%) Green foxtail [23]: 90%
Growth inhibition rate (%) Prickly sida [24]: 80%
Growth inhibition rate (%) Soybean [25]: 95%
Growth inhibition rate (%) Rice [26]: 70%
